Assay results published in paper PMC3242765, “Inhibitors of Alphavirus Entry and Replication Identified with a Stable Chikungunya Replicon Cell Line and Virus-Based Assays” (PLoS ONE, 2011).
Structures can show the parent of a compound that is named as a salt.

Assays:
[1] = system: CHIKV replicon; experiment: microbe, parasite or virus in culture; format: cell-based, Chikungunya virus (CHIKV)
[2] = system: SFV-Rluc

Structure (SMILES)	CHIKV replicon % left [1]	SFV replication % left (surviving fraction, remaining percentage of SFV replication) [2]
CN(C)CC[C@@H](c1ccc(Cl)cc1)c1ccccn1 [Dexchlorpheniramine maleate]	51.7%	68.1%
CN1C(=O)CN=C(c2ccccc2)c2cc(Cl)ccc21 [Diazepam]	84.0%	73.6%
CCCCOc1cc(C(=O)NCCN(CC)CC)c2ccccc2n1 [Dibucaine hydrochloride]	100.5%	77.8%
CC(C)NCC(O)c1ccc(Cl)c(Cl)c1.Cl (stereo not shown) [Dichloroisoproterenol hydrochloride]	69.2%	49.6%
O=c1oc2ccccc2c(O)c1Cc1c(O)c2ccccc2oc1=O [Dicumarol]	43.0%	65.6%
CCN(CC)C(C)C(=O)c1ccccc1 (stereo not shown) [Diethylpropion hydrochloride]	29.6%	47.1%
C[C@H]1O[C@@H](O[C@H]2[C@@H](O)C[C@H](O[C@H]3[C@@H](O)C[C@H](O[C@H]4CC[C@@]5(C)[C@H](CC[C@@H]6[C@@H]5C[C@@H](O)[C@]5(C)[C@@H](C7=CC(=O)OC7)CC[C@]65O)C4)O[C@@H]3C)O[C@@H]2C)C[C@H](O)[C@@H]1O [Digoxin]	94.3%	141.9%
CN(C)CCOC(c1ccccc1)c1ccccc1 [Diphenhydramine hydrochloride]	194.3%	41.0%
O=C1NC(=O)C(c2ccccc2)(c2ccccc2)N1 [Diphenylhydantoin [phenytoin]]	78.1%	66.3%
CN(C)CCC=C1c2ccccc2COc2ccccc21 [Doxepin hydrochloride]	87.2%	21.6%
CCOc1ccc(NC(N)=O)cc1 [Dulcin [p-phenetylurea]]	70.2%	103.3%
O=c1oc2c(O)c(O)cc3c(=O)oc4c(O)c(O)cc1c4c23 [Ellagic acid]	71.1%	64.9%
CC[C@H]1CN2CCc3cc(OC)c(OC)cc3[C@@H]2C[C@@H]1C[C@H]1NCCc2cc(OC)c(OC)cc21 [Emetine dihydrochloride]	80.9%	63.1%
O=c1ccc2cc(O)c(O)cc2o1 [Esculetin]	89.2%	103.6%
O.O.O.O=c1ccc2cc(O[C@@H]3O[C@H](CO)[C@@H](O)[C@H](O)[C@H]3O)c(O)cc2o1.O=c1ccc2cc(O[C@@H]3O[C@H](CO)[C@@H](O)[C@H](O)[C@H]3O)c(O)cc2o1 [Esculin sesquihydrate]	102.6%	95.0%
CCN(CC)C(=O)c1ccc(O)c(OC)c1 [Ethamivan]	43.1%	85.5%
CCN(CC)C(C)CN1c2ccccc2Sc2ccccc21 (stereo not shown) [Ethopropazine hydrochloride]	59.8%	20.1%
CCOc1ccc2c(c1)C(C)=CC(C)(C)N2 [Ethoxyquin]	83.6%	96.4%
CCOC(=O)c1ccc(O)cc1 [Ethyl 4-hydroxybenzoate]	94.4%	127.8%
CCC(N)C(O)c1ccc(O)c(O)c1 (stereo not shown) [Ethylnorepinephrine]	104.3%	126.8%
CCNCC(O)c1cccc(O)c1 (stereo not shown) [Etilefrin]	87.1%	116.8%
CC(C(=O)[O-])c1cccc(Oc2ccccc2)c1.CC(C(=O)[O-])c1cccc(Oc2ccccc2)c1.[Ca+2] (stereo not shown) [Fenoprofen calcium salt]	78.3%	87.6%
CC(Cc1ccc(O)cc1)NCC(O)c1cc(O)cc(O)c1 (stereo not shown) [Fenoterol hydrobromide]	88.4%	106.6%
COc1cc(/C=C/C(=O)O)ccc1O [Ferulic acid]	55.8%	63.4%
O=c1cc(-c2ccccc2)oc2ccccc12 [Flavone]	39.4%	52.2%
O=C(O)/C=C\C(=O)O.O=C(O)/C=C\C(=O)O.OCCN1CCN(CCCN2c3ccccc3Sc3ccc(C(F)(F)F)cc32)CC1 [Fluphenatzinemaleate]	104.3%	98.9%
Nc1nc(=O)c2nc(CNc3ccc(C(=O)N[C@@H](CCC(=O)O)C(=O)O)cc3)cnc2[nH]1 [Folic acid]	78.1%	100.0%

Structure (SMILES)	CHIKV replicon % left [1]	SFV replication % left (surviving fraction, remaining percentage of SFV replication) [2]
COc1cc2ccc(=O)oc2c(O)c1O [Fraxetin]	95.4%	103.6%
COc1cc2ccc(=O)oc2c(O)c1OC [Fraxidin]	104.3%	77.8%
O=C(O)c1cc(O)c(O)c(O)c1 [Gallic acid]	88.9%	148.8%
O=c1c(-c2ccc(O)cc2)coc2cc(O)cc(O)c12 [Genistein]	62.1%	45.6%
C[C@]12CC[C@H](O)C[C@H]1CC[C@@H]1[C@@H]2CC[C@]2(C)[C@@H](C3=CC(=O)OC3)[C@@H](O)C[C@]12O [Gitoxigenin]	81.4%	102.7%
O=c1c(O)c(-c2ccc(O)c(O)c2)oc2c(O[C@@H]3O[C@H](CO)[C@@H](O)[C@H](O)[C@H]3O)c(O)cc(O)c12 [Gossypin]	104.3%	105.8%
COc1ccccc1OCC(O)CO (stereo not shown) [Guaifenesin]	82.7%	124.5%
O=C(OC[C@H]1OC(O)[C@@](O)(COC(=O)c2cc(O)c(O)c(O)c2)[C@@H]1O)c1cc(O)c(O)c(O)c1 (stereo partly shown) [Hamamelitannin]	40.1%	14.7%
COc1ccc2ccc(=O)oc2c1 [Herniarin]	102.2%	53.2%
COc1ccc([C@@H]2CC(=O)c3c(O)cc(O[C@@H]4O[C@H](CO[C@@H]5O[C@@H](C)[C@H](O)[C@@H](O)[C@H]5O)[C@@H](O)[C@H](O)[C@H]4O)cc3O2)cc1O [Hesperidin]	102.2%	77.7%
CN1C(=O)NC(=O)C(C)(C2=CCCCC2)C1=O (stereo not shown) [Hexobarbital]	98.2%	121.3%
Oc1ccc(C(O)CNCCCCCCNCC(O)c2ccc(O)c(O)c2)cc1O (stereo not shown) [Hexoprenaline]	79.1%	124.9%
NCCCS(=O)(=O)O [Homotaurine]	89.2%	118.7%
NS(=O)(=O)c1cc2c(cc1Cl)NCNS2(=O)=O [Hydrochlorothiazide]	70.2%	121.2%
CC(=O)OCC(=O)[C@@]1(O)CC[C@H]2[C@@H]3CCC4=CC(=O)CC[C@]4(C)[C@H]3[C@@H](O)C[C@@]21C [Hydrocortisone acetate]	72.1%	116.8%
Oc1ccc(O)cc1 [Hydroquinone]	72.9%	16.9%
CCN(CCO)CCCC(C)Nc1ccnc2cc(Cl)ccc12 (stereo not shown) [Hydroxychloroquine sulfate]	100.1%	128.9%
OCCOCCN1CCN(C(c2ccccc2)c2ccc(Cl)cc2)CC1 (stereo not shown) [Hydroxyzine hydrochloride]	100.5%	98.3%
CC(C)(C)NC[C@H](O)COc1cccc2c1CCCC2=O [I-Bunolol]	105.4%	59.6%
CC(C)Cc1ccc(CC(=O)O)cc1 [Ibufenac]	78.9%	102.2%
CC(C)Cc1ccc(C(C)C(=O)O)cc1 (stereo not shown) [Ibuprofen]	100.5%	92.8%
O[C@H]1[C@H](O)[C@@H](O)[C@H](O)[C@@H](O)[C@H]1O [Inositol]	89.5%	106.0%
CCC(NC(C)C)C(O)c1ccc(O)c(O)c1 (stereo not shown) [Isoetharine]	100.4%	90.7%
CC(C)OC(=O)c1cc(O)c(O)c(O)c1 [Isopropyl gallate]	79.3%	124.0%
COc1cc(-c2oc3cc(O)cc(O)c3c(=O)c2O)ccc1O [Isorhamnetin]	19.3%	28.9%
COc1cc2oc(=O)ccc2cc1O [Isoscopoletin]	99.4%	120.6%
